# Key:
# [1] = tested on: HCV GT1a replicon; assay: HCV replicon assay (Huh-7 cells stably transfected with HCV GT1a replicon; luciferase or NEO gene qPCR readout); type: cell-based; settings: Hepatitis C virus, HCV 1a genotype replicon, 72 hours
# Description: (§1) HCV Replicon System was utilized as a screening model in the present disclosure to evaluate the antivirus effects of the compounds disclosed herein against HCV. HCV Replicon assay was first described in Science, 1999, 285 (5424), 110-3. […] To determine the potential anti-HCV effects of the test compounds, luciferase assay and antibiotic Neomycin resistance gene were tested according to the method described in Science. 1999 Jul. 2; 285 (5424), 110-3 and J. Virol. 2003 March; 77 (5), 3007-19.
# (§2) In a word, the compounds disclosed herein were tested by using human hepatic carcinoma cell line Huh-7 which is transfected stably with HCV GT1a, GT1b or GT2a replicon respectively, and resistant cells of Y93H, L31F, P32L or I302V and wild-type cells HCV 1b. HCV Replicon System disclosed herein contains G418 resistance gene NEO and Luciferase Reporter Gene, and the level of HCV replication in host cells is detected and characterized by the expression level of the NEO gene or Luciferase Reporter Gene, so the effects of the compounds herein inhibit HCV replication can be evaluated in this system. In this article, a real-time quantitative polymerase chain reaction (qPCR) method was used to detect NEO gene expression level, and chemiluminescence method was used to test Luciferase Reporter Gene expression level.
# (§3) 1. Test Method for Measuring EC50 of the Compounds Based on Luciferase Assay.
# (§4) The Huh-7 cells transfected with HCV replicons system were seeded into 96-well plates (8,000 cells in 125 μL/well) respectively; each test compound was diluted to desired concentration using 5-fold serial dilutions protocol, 10 doses in duplicate, and added to wells with POD™ 810 Plate Assembler. The plates were incubated in a CO2 incubator for 72 hours; after that, 40 μL of Luciferase assay substrate (Promega Bright-Glo) was added to each well, and detected by a chemiluminescence detection system (Topcount Microplate Scintillation and Luminescence Counter) 5 minutes later; the EC50 (half-maximal effective concentration, concentration for 50% of maximal effect) values of test compounds were analyzed by GraphPad Prism software. In this paper, experiments were repeated twice and set the wells without compounds as negative control.
# (§5) 2. Test Method for Measuring EC50 of the Compounds by Detecting Antibiotic G418 Resistance Gene NEO Gene.
# (§6) The Huh-7 cells transfected with HCV replicons system were seeded into 96-well plates (8,000 cells in 125 μL/well) respectively; each test compound was diluted to desired concentration using 5-fold serial dilutions protocol, 10 doses in duplicate, and added to each well with POD™ 810 Plate Assembler; the cells were incubated in a CO2 incubator for 72 hours; and detected the expression level of the NEO gene expression with real-time quantitative PCR later; the EC50 (half-maximal effective concentration, concentration for 50% of maximal effect) values of test compounds were analyzed by GraphPad Prism software, respectively. In this paper, experiments were repeated twice and set the wells without compounds as negative control.
# [2] = tested on: HCV GT1b replicon; assay: HCV replicon assay (Huh-7 cells stably transfected with HCV GT1b replicon; luciferase or NEO gene qPCR readout); type: cell-based; settings: Hepatitis C virus, HCV 1b genotype replicon, 72 hours
# Description: as §1, §2, §3, §4, §5, §6
compound,measurement,setting,value
COC(=O)N[C@H](C(=O)N1CC2(C[C@H]1c1ncc(-c3ccc(-c4ccc(-c5ccc6nc([C@@H]7CCCN7C(=O)[C@@H](NC(=O)OC)C(C)C)[nH]c6c5)c5c4C4CCC4C5)cc3)[nH]1)OCCO2)C(C)C (stereo partly drawn) [Example 20],EC50,[1],0.429 nM
same,EC50,[2],0.036 nM
COC(=O)NC(C(=O)N1CCCC1c1ncc(-c2ccc(-c3ccc(-c4ccc5nc(C6CCCN6C(=O)C(NC(=O)OC)C(C)C)[nH]c5c4)c4c3C3CCC3C4)cc2)[nH]1)C(C)C (stereo not drawn) [Example 38],EC50,[1],0.058 nM
same,EC50,[2],0.013 nM
COC(=O)N[C@H](C(=O)N1CCCC[C@H]1c1ncc(-c2ccc(-c3ccc(-c4ccc5nc([C@@H]6CCCCN6C(=O)[C@@H](NC(=O)OC)C(C)C)[nH]c5c4)c4c3C3CCC3C4)cc2)[nH]1)C(C)C (stereo partly drawn) [Example 13],EC50,[1],0.418 nM
same,EC50,[2],0.206 nM
CC(C)[C@H](NC(=O)OC(C)(C)C)C(=O)N1CCC[C@H]1c1ncc(-c2ccc(-c3ccc(-c4cnc([C@@H]5CCCN5C(=O)[C@@H](NC(=O)OC(C)(C)C)C(C)C)[nH]4)c4c3C3CCC3C4)cc2)[nH]1 (stereo partly drawn) [Example 10],EC50,[1],4.33 nM
same,EC50,[2],0.927 nM
COC(=O)NC(C(=O)N1CCCC1c1ncc(-c2ccc(-c3ccc(-c4cnc(C5CCCN5C(=O)C(NC(=O)OC)C(C)C)[nH]4)c4c3C3CCC3C4)cc2)[nH]1)C(C)C (stereo not drawn) [Example 35],EC50,[1],0.548 nM
same,EC50,[2],0.007 nM
COC(=O)N[C@H](C(=O)N1CCC[C@H]1c1ncc(-c2ccc(-c3ccc(-c4ccc5nc([C@@H]6CCCN6C(=O)[C@@H](NC(=O)OC)C(C)C)[nH]c5c4)c4c3C3CCC3C4)c3ccccc23)[nH]1)C(C)C (stereo partly drawn) [Example 23],EC50,[1],0.449 nM
same,EC50,[2],0.05 nM
COC(=O)N[C@H](C(=O)N1CCC[C@H]1c1nc(-c2ccc(-c3ccc(-c4ccc5nc([C@@H]6CCCN6C(=O)[C@@H](NC(=O)OC)C(C)C)[nH]c5c4)c4c3C3CCC3C4)c3c2CCC3)c[nH]1)C(C)C (stereo partly drawn) [Example 22],EC50,[1],0.233 nM
same,EC50,[2],0.082 nM
CC(C)[C@H](NC(=O)Oc1ccccc1)C(=O)N1CC(C)(C)C[C@H]1c1ncc(-c2ccc(-c3ccc(-c4ccc5nc([C@@H]6CC(C)(C)CN6C(=O)[C@@H](NC(=O)Oc6ccccc6)C(C)C)[nH]c5c4)c4c3C3CCC3C4)cc2)[nH]1 (stereo partly drawn) [Example 16],EC50,[1],2.55 nM
same,EC50,[2],0.879 nM
COC(=O)N[C@H](C(=O)N1CCC[C@H]1c1ncc(-c2ccc(-c3ccc(-c4cnc([C@@H]5CCCN5C(=O)[C@@H](NC(=O)OC)C(C)C)[nH]4)c4c3C3CC(=O)CC3C4)cc2)[nH]1)C(C)C (stereo partly drawn) [Example 34],EC50,[1],0.075 nM
same,EC50,[2],0.022 nM
COC(=O)N[C@H](C(=O)N1CC2(CC2)C[C@H]1c1ncc(-c2ccc(-c3ccc(-c4ccc5nc([C@@H]6CC7(CC7)CN6C(=O)[C@@H](NC(=O)OC)C(C)C)[nH]c5c4)c4c3C3CCC3C4)cc2)[nH]1)C(C)C (stereo partly drawn) [Example 17],EC50,[1],0.062 nM
same,EC50,[2],0.078 nM
COC(=O)N[C@H](C(=O)N1CCC[C@H]1c1ncc(C#Cc2ccc(-c3ccc4nc([C@@H]5CCCN5C(=O)[C@@H](NC(=O)OC)C(C)C)[nH]c4c3)c3c2C2CCC2C3)[nH]1)C(C)C (stereo partly drawn) [Example 6],EC50,[1],0.243 nM
same,EC50,[2],0.106 nM
COC(=O)N[C@H](C(=O)N1CCC[C@H]1c1ncc(-c2ccc(-c3ccc(-c4ccc5nc([C@@H]6CCCN6C(=O)[C@@H](NC(=O)OC)C(C)C)[nH]c(=O)c5c4)c4c3C3CC(F)(F)C3C4)cc2)[nH]1)C(C)C (stereo partly drawn) [Example 28],EC50,[1],0.022 nM
same,EC50,[2],0.008 nM
